Data taken from patent publication US5734081A, “Arylthio compounds” (Warner-Lambert Company, priority 1995, dated 1998).

Legend:
[1] = system: HIV-1; experiment: CEM cell assay, anti-HIV-1 activity; type: cell-based; conditions: Human immunodeficiency virus 1, CCRF-CEM, HIV-1, 6 or 7 days, read-out: EC50 (Effective Concentration which protects cells from viral cytopathic effects)
Source text: The test systems utilized to establish the antiviral activity of the arylthio compounds of this invention are well recognized in the art and are routinely employed for such purpose. For example, the assay utilized to evaluate the compounds activity against the HIV virus is that employed by the U.S. National Cancer Institute as described by Weislow O. S., et al., J. Natl. Cancer Inst., 1989;81:577-586, incorporated herein by reference.
The procedure is designed to detect agents acting at any stage of the virus reproductive cycle. The assay basically involves the killing of T4 lymphocytes by HIV. Small amounts of HIV are added to cells, and at least two complete cycles of virus reproduction are necessary to obtain the required cell killing. Agents which interact with virions, cells, or virus gene-products to interfere with viral activities will protect cells from cytolysis. The system is automated in several features to accommodate large numbers of candidate agents, and is generally designed to detect anti-HIV activity. However, compounds which degenerate or are rapidly metabolized in the culture conditions may not show activity in this screen.
(§1) Yet another test system employed to determine antiviral activity is called the CEM cell assay.
(§2) T4 lymphocytes (CEM cell line) are exposed to HIV at a virus to cell ratio approximately 0.05, and plated along with noninfected control cells in 96-well microliter plates.
(§3) The candidate agent is dissolved in dimethyl sulfoxide (unless otherwise noted), then diluted 1:200 in cell culture medium. Further dilutions (half-log10) are prepared before adding to an equal volume of medium containing either infected or noninfected cells. Cultures are incubated at 37° in a 5% carbon dioxide atmosphere for 6 or 7 days. The tetrazolium salt, XTT, is added to all wells, and cultures are incubated to allow formazan color development by viable cells (J. National Cancer Institute, 1989;81:577-586). Individual wells are analyzed spectrophotometrically to quantitate formazan production, and in addition are viewed microscopically for detection of viable cells confirmation of protective activity.
(§4) Drug-tested virus-infected cells are compared with drug-treated noninfected cells and with other appropriate controls (untreated infected and untreated noninfected cells, drug-contain wells without cells, etc.) on the same plate. Data are reviewed in comparison with other tests done at the same time and a determination about activity is made.

[2] = CEM cell growth inhibition (XTT, noninfected cells); type: cell-based; conditions: human, CEM Cell Assay, drug alone, read-out: IC50 (Inhibitory Concentration where drug alone inhibits cell growth)
Protocol: as §1, §2, §3, §4

[3] = target: T1, HIV-1 Nucleocapsid Protein (NCp7) (Human immunodeficiency virus type 1 group M subtype B, UniProt P12493); experiment: Zinc extrusion assay (TSQ fluorescence) from the zinc fingers of HIV-1 nucleocapsid protein (NCp7); type: biochemical
T1 construct: The NCp7 protein containing 2 Zn-fingers and 2 Zn ions is incubated with drug
Source text: The compounds of the present invention cause the extrusion of zinc from the nucleocapsid protein (NCp7) of HIV-1. The NC protein is highly conserved among all retroviruses (South T., Blake P., et al., Biochemistry, 1990;29:7786) and is essential for viral infectivity (Aldovini A. and Young R., J. Virology, 1990;64:1920 and Gorelick R., Nigida S., et al., J. Virology, 1990;64:3207). The zinc is normally held in NC proteins by 1 or 2 zinc fingers. In the case of HIV-1, 2 zinc fingers are present (Summers M., South T., et al., Biochemistry, 1990;29:329) and are involved specifically with the PSI site on viral RNA which controls the packaging of viral RNA. Interference of this packaging causes the formation of non-infectious virions (Dannull J., Surovoy A., et al., EMBO, 1994;13:1525). It has previously been shown that compounds that cause zinc extrusion have potent anti-HIV activity in multiple cell lines and against all retroviruses (Rice W., Schaeffer C., et al., Nature, 1993;361:473).
A fluorescence-based assay has been developed to monitor the ejection of zinc from purified HIV-1 NCp7. The fluorophore, N-(6-methoxy-8-quinolyl)-p-toluenesulfonamide (TSQ), has an increased fluorescent signal upon bonding zinc ion in solution. The NCp7 protein containing 2 Zn-fingers and 2 Zn ions is incubated with drug causing the extrusion of Zn ions. The released Zn is then sequestered by the TSQ and the increased fluorescence monitored relative to control. […] Fluorescence (excitation 355 nm emission 400 nm) was monitored versus time. Controls were the NCp7 under assay conditions without drug, and apo NCp7 (no Zn) with drug. The % Zn extrusion was calculated based on the actual fluorescence measured divided by the fluorescence of all theoretical Zn extruded (5.6 μM)×100.
Table 1 below presents data for several invention compounds evaluated in the zinc extrusion assay described above.

[4] = 10 μM compound, 2.8 μM NCp7, pH 7.4, 26° C., 90 minutes

SMILES	EC50 [1]	CC50 [2]	% Zinc Extrusion Relative to Control [3, 4]	% Zinc Extrusion Relative to Control ([3]; EDTA, 24 hours)
O=C(O)c1ccc(NC(=O)c2ccccc2SSc2ccccc2C(=O)Nc2ccc(C(=O)O)cc2)cc1 [Example 106, 4,4'-[dithiobis(2,1-phenylenecarbonylimino)bisbenzoic acid]]	1.8 µM	22 µM	–	–
NS(=O)(=O)c1ccc(NC(=O)c2cccnc2SSc2ncccc2C(=O)Nc2ccc(S(N)(=O)=O)cc2)cc1 [Example 25, 2,2'-Dithiobis[N-[4-(aminosulfonyl)phenyl]-3-pyridinecarboxamide]]	–	–	73%	–
NS(=O)(=O)c1ccccc1NC(=O)c1ccccc1SSc1ccccc1C(=O)Nc1ccccc1S(N)(=O)=O [Example 102, 2,2'-Dithiobis[N-[2-(aminosulfonyl)phenyl]benzamide]]	1.7 µM	68 µM	–	–
CS(=O)(=O)c1ccc(NC(=O)c2ccccc2SSc2ccccc2C(=O)Nc2ccc(S(C)(=O)=O)cc2)cc1 [Example 94, 2,2'-Dithiobis[N-[4-(methylsulfonyl)phenyl]benzamide]]	–	–	62%	–
Cc1ccc(C(=O)N[C@@H](CC(C)C)C(=O)O)c(SSc2cc(C)ccc2C(=O)N[C@@H](CC(C)C)C(=O)O)c1 [Example 57, [S-(R*,R*)]2-{2-[2-(1-Carboxy-3-methyl-butylcarbamoyl)-5-methyl-phenyldisulfanyl]-4-methylbenzoylamino}-4-methyl-pentanoic acid]	6 µM	71 µM	–	–
O=C(O)C[C@H](NC(=O)c1ccccc1SSc1ccccc1C(=O)N[C@@H](CC(=O)O)C(=O)O)C(=O)O [Example 62, L,L-2-{2-[2-(1,2-Dicarboxy-ethylcarbamoyl)-phenyldisulfanyl]-benzoylamino}-succinic acid]	–	–	73%	–
COc1ccc(C(=O)N[C@@H](CC(C)C)C(=O)O)c(SSc2cc(OC)ccc2C(=O)N[C@@H](CC(C)C)C(=O)O)c1 [Example 54, [S-(R*,R*)]2-{2-[2-(1-Carboxy-3-methyl-butyl]carbamoyl)-5-methoxy-phenyldisulfanyl]-4-methoxybenzoylamino}-4-methyl-pentanoic acid]	6.9 µM	75 µM	–	–
Cc1cccc(C(=O)N[C@@H](CC(C)C)C(=O)O)c1SSc1c(C)cccc1C(=O)N[C@@H](CC(C)C)C(=O)O [Example 56, [S-(R*,R*)]2-{2-[2-(1-Carboxy-3-methyl-butylcarbamoyl)-6-methyl-phenyldisulfanyl]-3-methyl-benzoylamino}-4-methyl-pentanoic acid]	–	–	73%	–
CC(C)C[C@H](NC(=O)c1ccc(F)cc1SSc1cc(F)ccc1C(=O)N[C@@H](CC(C)C)C(=O)O)C(=O)O [Example 51, [S-(R*,R*)]2-{2-[2-(1-Carboxy-3-methyl-butylcarbamoyl)-5-fluoro-phenyldisulfanyl]-4-fluorobenzoylamino}-4-methyl-pentanoic acid]	8.4 µM	64 µM	–	–
O=C(c1ccccc1SSc1ccccc1C(=O)N1CCSCC1)N1CCSCC1 [Example 113, {2-[2-(Thiomorpholine-4-carbonyl)-phenyldisulfanyl]phenyl}-thiomorpholin-4-yl-methanone]	–	–	67%	–
O=C(O)Cc1ccc(NC(=O)c2ccccc2SSc2ccccc2C(=O)Nc2ccc(CC(=O)O)cc2)cc1 [Example 108, (4-{2-[2-(4-Carboxymethyl-phenylcarbamoyl)-phenyldisulfanyl]-benzoylamino}-phenyl)-acetic acid]	5.9 µM	61 µM	–	–
CC(C)(C)[C@H](NC(=O)c1ccccc1SSc1ccccc1C(=O)N[C@H](C(=O)O)C(C)(C)C)C(=O)O [Example 48, L,L-2-{2-[2-(1-Carboxy-2,2-dimethyl-propylcarbamoyl)-phenyldisulfanyl]-benzoylamino}-3,3-dimethyl-butyric acid]	18 µM	> 100 µM	–	–
NS(=O)(=O)c1ccc(NC(=O)c2ccc(F)cc2SSc2cc(F)ccc2C(=O)Nc2ccc(S(N)(=O)=O)cc2)cc1 [Example 16, 2,2'-Dithiobis[N-[4-(aminosulfonyl)phenyl]-4-fluorobenzamide]]	2.5 µM	66 µM	–	–
O=C(Nc1ccc(Cl)cc1Cl)c1ccccc1SSc1ccccc1C(=O)Nc1ccc(Cl)cc1Cl [Example 84, 2,2'-Dithiobis[N-(2,4-dichlorophenyl)benzamide]]	–	–	50%	–
COc1ccc(SSc2ccc(OC)cc2C(N)=O)c(C(N)=O)c1 [Example 70, 2,2'-Dithiobis[5-methoxy-benzamide]]	–	–	74%	–
COc1cccc(C(=O)Nc2ccc(S(N)(=O)=O)cc2)c1SSc1c(OC)cccc1C(=O)Nc1ccc(S(N)(=O)=O)cc1 [Example 18, 2,2'-Dithiobis[N-[4-(aminosulfonyl)phenyl]-3-methoxybenzamide]]	–	–	67%	–
CC(=O)Nc1ccc(SSc2ccc(NC(C)=O)cc2C(=O)N[C@@H](CC(C)C)C(=O)O)c(C(=O)N[C@@H](CC(C)C)C(=O)O)c1 [Example 60, [S-(R*,R*)]2-{5-Acetylamino-2-[4-acetylamino-2-(1-carboxy-3-methyl-butylcarbamoyl)-phenyldisulfanyl]-benzoylamino}-4-methyl-pentanoic acid]	–	–	65%	–
Cc1ccc(SSc2ccc(C)cc2C(=O)Nc2ccc(S(N)(=O)=O)cc2)c(C(=O)Nc2ccc(S(N)(=O)=O)cc2)c1 [Example 23, 2,2'-Dithiobis[N-[4-(aminosulfonyl)phenyl]-5-methylbenzamide]]	4.3 µM	> 100 µM	–	–
O=C(O)CN(CCN(CC(=O)O)CC(=O)O)CC(=O)O [EDTA, reference compound]	–	–	–	10%
O=C(c1ccccc1)c1ccccc1SSc1ccccc1C(=NO)c1ccccc1 [Example 150, {2-[2-(hydroxyimino-phenyl-methyl)-phenyldisulfanyl]phenyl}-phenyl-methanon]	–	–	36%	–
COC(=O)c1ccccc1SSc1ccccc1C(=O)Nc1ccc(S(N)(=O)=O)cc1 [Example 137, 2-[2-(4-Sulfamoylphenylcarbamoyl)phenyldisulfanyl]benzoic acid, methyl ester]	8.6 µM	65 µM	–	–
CC(C)(SSc1ccccc1C(=O)Nc1ccc(S(N)(=O)=O)cc1)C(N)C(=O)O (stereo not shown) [Example 138, 2-Amino-3-methyl-3-[2-(4-sulfamoylphenylcarbamoyl)phenyldisulfanyl]-butyric acid]	6.3 µM	66 µM	–	–
CC(C)(C)C(=O)Nc1ccc(SSc2ccc(NC(=O)C(C)(C)C)cc2C(N)=O)c(C(N)=O)c1 [Example 73, 2,2'-Dithiobis[5-[(2,2-dimethyl-1-oxopropyl)amino]benzamide]]	5 µM	70 µM	–	–
CC(C)NS(=O)(=O)c1ccc(NC(=O)c2ccccc2SSc2ccccc2C(=O)Nc2ccc(S(=O)(=O)NC(C)C)cc2)cc1 [Example 3, 2,2'-Dithiobis-N-[4[[(1-methylethyl)amino]sulfonyl]phenyl]benzamide]	–	–	73%	–
NS(=O)(=O)c1ccc(NS(=O)(=O)c2ccccc2SSc2ccccc2S(=O)(=O)Nc2ccc(S(N)(=O)=O)cc2)cc1 [Example 145]	–	–	65%	–
